According to article PMC11124387, “A Reliable Multifaceted Solution against Foodborne Viral Infections: The Case of RiLK1 Decapeptide” (Molecules, 2024):
Where “and” joins values, the source holds several entries; their conditions need not be identical. Equal values may be shown once. Read-outs that look alike come from different tables or passages of the source. Where a SMILES comes first, the peptide text is derived from it.

What was measured:
[1] = tested on: Hepatitis A virus (HAV) strain HM-175; experiment: Virucidal effect of peptides on HAV (residual infectivity by TCID50 titration on Frp3 cells); assay type: cell-based; conditions: for Viral Titre after Treatment: titration on Frp3 cells; for Viral Titre after Treatment / LRV (log reduction value): mean ± SD, triplicate
Source text: (§1) Murine norovirus strain 1 (MNV-1) was used as a surrogate for human norovirus (NoV). The virus was replicated in RAW 264.7 cells (murine macrophage cell line) cultured in Dulbecco’s modified Eagle’s medium (DMEM) supplemented with 1% glutamine, 1% non-essential amino acids, and 2% fetal bovine serum (FBS). Hepatitis A virus (HAV) strain HM-175 was replicated in Frp3 cells (non-human primate cell line derived from fetal kidney) cultured in minimum essential medium (MEM) with Earle’s salts supplemented with 1% glutamine, 2% non-essential amino acids, and 2% FBS. Both viruses were incubated in 5% CO2 at 37 °C. All cell culture media were provided by EuroClone (Milan, Italy). The viral suspensions were prepared by freeze and thaw lysis (1 cycle for MNV-1 and 3 cycles for HAV) of infected monolayers, clarified using low-speed centrifugation (800× g) to remove residual cell debris, then divided in aliquots, and stored at −80 °C until use.
(§2) Solutions 40 µM and 80 µM of each peptide of the panel (RiLK1, RiLK3, RiLK30, 1018-K6, MTP1, and AVP2) were chosen for the virucidal tests. HAV and MNV-1 were assayed at a concentration of 4.7 ± 0.2 log TCID50/mL and 4.5 ± 0.2 log TCID50/mL, respectively. The suspensions containing the peptides and viruses were incubated for 1 h at room temperature (RT,20 ± 2 °C) and 4 °C. These temperatures were chosen to simulate the use of sanitizing solutions in food production/processing environments. Residual viral infectivity was evaluated by titration (TCID50/mL) on Frp3 cells for HAV and on RAW 264.7 cells for MNV-1. Untreated HAV and MNV-1 suspensions and 40 µM and 80 µM AMP solutions, incubated at the same conditions, were used as controls. Each treatment condition was assayed in triplicate. For titration, 100 µL of serial tenfold dilutions of each sample were assayed in 24-well tissue culture plates containing 24–48 h cell monolayers and incubated for 1 h in 5% CO2 at 37 °C. After that, the wells were washed twice with 200 µL of PBS, and 500 µL of DMEM/MEM, supplemented with 2% of FBS, were was added to each well; MNV-1 and HAV incubations were carried for up to 6 days and 14 days, respectively, in 5% CO2 at 37 °C with daily visual inspection to determine the cytopathic effect. The virucidal efficacy of AMPs was estimated by comparing the titers of treated and untreated viral suspensions.
(§3) For each treatment, the average and standard deviation of the triplicate analyses were calculated. The virucidal effects of AMPs was assessed by calculating the log reduction value (LRV), i.e., the difference between the infectious titer (log-transformed) of untreated versus treated samples. The statistical significance of differences between treated and untreated samples was determined through one-way analysis of variance (ANOVA) with Bonferroni post hoc comparisons, with a significance level of p < 0.05 (GraphPad Prism v9.5.0, software San Diego, CA, USA).

[2] = tested on: Murine norovirus strain 1 (MNV-1); assay type: cell-based; conditions: for Viral Titre after Treatment: titration on RAW 264.7 cells; for Viral Titre after Treatment / LRV (log reduction value): mean ± SD, triplicate
Source text: as §1, §2, §3

[3] = pH 2; cited from earlier work
Procedure: In this context, to acquire important information on how the conformational properties of peptides might influence the structure–function relationships and their distinct membrane interaction profiles, the propensity of the new peptides, RiLK30 and AVP2, to adopt a defined secondary structure and to undergo conformational changes were examined by circular dichroism and fluorescence spectroscopy. These analyses were performed in the presence of a negatively charged SDS that is commonly used as a biomimetic membrane model to study the structural features of membranotropic molecules. In previous ...

[4] = assay type: physicochemical
Procedure: Circular Dichroism (CD) analysis was performed by a Jasco J-810 spectropolarimeter. The samples were loaded into a quartz cuvette of 0.1 cm path length (Hellma Analytics), and the spectra were recorded in the 195–250 nm range at a scan speed of 20 nm/min, averaging 5 scans. CD experiments were carried out in 10 mM Tris-HCl buffer, pH 7.0, as a function of SDS concentrations (3, 50, and 150 mM) at a peptide concentration of 50 µM. The folding kinetic measurements of the peptides were performed after the addition of SDS (50 mM) to each sample (50 µM in 10 mM Tris-HCl, pH 7.0) up to 24 h of incubation. For thermal stability analyses, the peptides were prepared to a final concentration of 50 μM in 10 mM Tris-HCl, pH 7.0, and then they were incubated at 4 and 25 °C up to 48 h before acquiring the CD spectra in the presence of 50 mM SDS. A blank spectrum of a sample containing all components except the peptide was acquired for the baseline correction of the CD spectra of the peptide. The mean residue ellipticity ([θ], deg cm^2 dmol^−1) was obtained by the equation [θ] = 100 θ/cnl, where θ is the ellipticity (mdeg), c is the peptide concentration (mM), n is the number of residues, and l is the path length (cm).
Tryptophan (Trp) fluorescence emission spectra were recorded at 25 °C on a Shimadzu RF-6000 spectrofluorometer (Kyoto, Japan), with both excitation and emission slit widths set at 5 nm. The intrinsic Trp was excited at a wavelength of 280 nm and the emission was monitored between 300 and 400 nm. Fluorescence measurements were carried out in 10 mM Tris-HCl buffer, pH 7.0, as a function of SDS concentrations (3, 50, and 150 mM) at a peptide concentration of 50 µM. The folding kinetic experiments of AVP2 and RiLK30 were performed after the addition of SDS (50 mM) to each sample (50 µM concentration in 10 mM Tris-HCl buffer, pH 7.0) up to 24 h of incubation. The effect of temperature on peptide folding was analyzed by dissolving the peptides at a final concentration of 50 µM in 10 mM Tris-HCl buffer, pH 7.0, and incubating them at 4 and 25 °C up to 48 h. The spectra were recorded in the presence of 50 mM SDS.

[5] = HAV 4.7 ± 0.2 log TCID50/mL + peptide 80 µM, 1 h at 4 °C
[6] = HAV + peptide 40 µM, 1 h at 4 °C
[7] = HAV + peptide 40 µM, 1 h at 4 °C, untreated minus treated titre
[8] = HAV + peptide 40 µM, 1 h at RT (20 ± 2 °C)
[9] = HAV + peptide 80 µM, 1 h at 4 °C, untreated minus treated titre
[10] = HAV + peptide 80 µM, 1 h at RT (20 ± 2 °C)
[11] = maximum reduction, corresponding to the highest LRV
[12] = MNV-1 4.5 ± 0.2 log TCID50/mL + peptide 80 µM, 1 h at 4 °C
[13] = MNV-1 + peptide 40 µM, 1 h at 4 °C
[14] = MNV-1 + peptide 40 µM, 1 h at RT (20 ± 2 °C)
[15] = MNV-1 + peptide 80 µM, 1 h at 4 °C
[16] = MNV-1 + peptide 80 µM, 1 h at RT (20 ± 2 °C)

| SMILES | Viral Titre after Treatment [1, 5] [logTCID50/mL] | Viral Titre after Treatment [1, 6] [logTCID50/mL] | LRV (log reduction value) [1, 7] [logTCID50/mL] | LRV (log reduction value) [1, 8] [logTCID50/mL] | Viral Titre after Treatment [1, 8] [logTCID50/mL] | LRV (log reduction value) [1, 9] [logTCID50/mL] | LRV (log reduction value) [1, 10] [logTCID50/mL] | Viral Titre after Treatment [1, 10] [logTCID50/mL] | Viral Titre after Treatment [2, 12] [logTCID50/mL] | LRV (log reduction value) [2, 13] [logTCID50/mL] | Viral Titre after Treatment [2, 13] [logTCID50/mL] | LRV (log reduction value) [2, 14] [logTCID50/mL] | Viral Titre after Treatment [2, 14] [logTCID50/mL] | LRV (log reduction value) [2, 15] [logTCID50/mL] | LRV (log reduction value) [2, 16] [logTCID50/mL] | Viral Titre after Treatment [2, 16] [logTCID50/mL] | further results |
| --- | --- | --- | --- | --- | --- | --- | --- | --- | --- | --- | --- | --- | --- | --- | --- | --- | --- |
| CC[C@H](C)[C@H](NC(=O)[C@H](CCCNC(=N)N)NC(=O)[C@@H](NC(=O)[C@H](CCCCN)NC(=O)[C@@H](NC(=O)[C@@H](NC(=O)[C@H](CC(C)C)NC(=O)[C@H](CCCNC(=N)N)NC(=O)[C@@H](N)C(C)C)[C@@H](C)CC)C(C)C)C(C)C)C(=O)N[C@@H](Cc1c[nH]c2ccccc12)C(=O)N[C@@H](CCCNC(=N)N)C(=O)N[C@@H](CCCNC(=N)N)C(N)=O [1018-K6] (H-VRLIVKVRIWRR-NH2; N-terminus assumed) | 3.3 ± 0.2 | 3.4 ± 0.1 | 1.3 ± 0.3 | 1.4 ± 0.4 | 3.3 ± 0.2 | 1.4 ± 0.4 | 1.4 ± 0.4 | 3.3 ± 0.2 | 4.3 ± 0.2 | 0 ± 0.3 | 4.5 ± 0.1 | 0 ± 0.4 | 4.5 ± 0.2 | 0.2 ± 0.4 | 0.2 ± 0.4 | 4.3 ± 0.2 | decrease of HAV infectious titer [1, 11]: up to 96.7%; infectivity reduction on HAV ([1]; text summary over 40 µM and 80 µM and the two temperatures (4 °C, RT)): 1.3–1.4 log; virucidal activity toward MNV-1 (in words) ([2]; 40 and 80 µM, 4 °C and RT): no significant effects; structural stability [3]: high structural stability |
| CC[C@H](C)[C@H](NC(=O)[C@H](Cc1cnc[nH]1)NC(=O)[C@H](CCCCN)NC(=O)[C@@H](NC(=O)[C@@H](NC(=O)[C@H](CC(=O)O)NC(=O)[C@H](Cc1ccccc1)NC(=O)[C@H](Cc1c[nH]c2ccccc12)NC(=O)CN)C(C)C)C(C)C)C(=O)N[C@@H](C)C(=O)N[C@@H](CCCCN)C(=O)N[C@@H](CCCNC(=N)N)C(=O)N[C@@H](Cc1ccccc1)C(N)=O [AVP2, reference compound] (H-GWFDVVKHIAKRF-NH2) |  |  |  |  |  |  |  |  |  |  |  |  |  |  |  |  | thermal (conformational) stability in SDS micellar solution ([4]; pH 7): at least 48 h |
| CC[C@H](C)[C@H](NC(=O)[C@H](Cc1c[nH]cn1)NC(=O)[C@H](CCCCN)NC(=O)[C@@H](NC(=O)[C@@H](NC(=O)[C@H](CC(=O)O)NC(=O)[C@H](Cc1ccccc1)NC(=O)[C@H](Cc1c[nH]c2ccccc12)NC(=O)CN)C(C)C)C(C)C)C(=O)N[C@@H](C)C(=O)N[C@@H](CCCCN)C(=O)N[C@@H](CCCNC(=N)N)C(=O)N[C@@H](Cc1ccccc1)C(N)=O [AVP2, reference compound] (H-GWFDVVKHIAKRF-NH2; N-terminus assumed) | 4.3 ± 0.2 | 4.3 ± 0.2 | 0.4 ± 0.4 | 0.4 ± 0.4 | 4.3 ± 0.2 | 0.4 ± 0.4 | 0.7 ± 0.5 | 4.0 ± 0.3 | 3.6 ± 0.1 | 0.9 ± 0.3 | 3.6 ± 0.1 | 0.9 ± 0.3 | 3.6 ± 0.1 | 0.9 ± 0.3 | 1.0 ± 0.3 | 3.5 ± 0.1 | virucidal activity toward HAV (in words) ([1]; 40 and 80 µM, 4 °C and RT): limited reduction in infectivity; LRV against MNV-1 ([2]; at both temperatures (4 °C, RT)): 0.9 log and 1.0 log; reduction of MNV-1 infectivity [2, 11]: up to 91.3%; conformational rearrangement over time (CD and fluorescence spectra) ([4]; peptide 50 µM, 10 mM Tris-HCl pH 7.0, SDS 50 mM, 24 h incubation at 37 °C (legend: 25 °C)): did not appear to undergo significant changes |
